Source: publication PMC4456664, “The HAB1 PP2C is inhibited by ABA-dependent PYL10 interaction” (Scientific Reports, 2015)

Molecular target: T1, PYL10 (Arabidopsis thaliana, UniProt Q8H1R0)
T1 sequence (Q8H1R0 1-183): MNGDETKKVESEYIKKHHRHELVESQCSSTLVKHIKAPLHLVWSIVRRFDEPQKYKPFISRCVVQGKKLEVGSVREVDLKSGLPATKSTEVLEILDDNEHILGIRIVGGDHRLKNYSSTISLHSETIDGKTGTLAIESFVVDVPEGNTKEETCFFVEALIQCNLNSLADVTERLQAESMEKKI
Assay: ITC at […] °C, pH […]; supported by 1H-15N HSQC NMR titration and HAB1 phosphatase assay
Format: binding

## CC1=CC(=O)CC(C)(C)[C@@]1(O)/C=C/C(C)=C\C(=O)O [abscisic acid]
  Kd: 66.2 ± 13.9 µM
